According to patent publication US7030067B2, “Bis(perfluoroalkanesulfonyl)imides and their salts as surfactants/additives for applications having extreme environments and methods therefor” (priority 2001, dated 2006):
Entries after “also recorded” stand apart in the source; their conditions may differ.

Experiments:
[1] = Surface tension determination in water (Kruss K12 Tensiometer, Wilhelmy plate); format: physicochemical; details: for surface tension versus concentration profile, comparison in words: FIG. 1, 2, 3, 5
Protocol: Test Procedure I—Surface Tension Determination
(§1) All surface tensions were determined using a Kruss K12 Tensiometer. The tensiometer was integrated with an automatic dosimat and a computer, using a software package for dynamic contact angle (K121). The program was run using a Wilhelmy platinum plate (PL12) and glass sample vessel (GL7). All parts referenced above including instrument and computer are available from Kruss USA, Charlotte, N.C.

[2] = Surface tension measurements in tributyl phosphate; format: physicochemical; details: 2000 ppm in tributyl phosphate
Protocol: as §1
Surface tension measurements were obtained as described above with the exception that the measurments were obtained in tributyl phosphate.

[3] = DC conductivity of potassium salts in tributylphosphate; format: physicochemical; details: 3000 ppm in tributyl phosphate, 21.6-21.9° C.
From the text: Four tributylphosphate samples, with or without dissolved anti-erosion additives, measured for DC conductivity. The four samples were neat tributyl phosphate (control), tributyl phosphate with 3000 ppm FC-98, tributyl phosphate with 3000 ppm PBSK, and tributyl phosphate with 3000 ppm potassium bis(perfluorobutanesulfonyl)imide (DBIK).
The conductivity probe was carefully cleaned with EM Science OMNISOLV™ grade methanol, dried in a clean nitrogen stream, and allowed to equilibrate back to ambient temperature between samples.

[4] = Bioelimination study, fluorochemical sulfonate in male rat liver tissue; format: in vivo; details: for factor lower than C6F13SO3− / factor lower than C8F17SO3−: liver amount; for Amount of Sulfonate, Day 1 / Amount of Sulfonate, Day 14 / Amount of Sulfonate, Day 28: male rat liver tissue, dose 30 (C4), 10 (C6), 3 (C8) mg/kg body weight/day; for Amount of Sulfonate, Day 1: Day 1 following completion of feeding; for Amount of Sulfonate, Day 1N / Amount of Sulfonate, Day 14N / Amount of Sulfonate, Day 28N: male rat liver, normalized to a feeding level of 3 mg/kg body weight per day; for elimination from the body, in words: tested in the form of its potassium salt
Protocol: Comparative study of potassium perfluorobutanesulfonate (using a dose level of 30 mg/kg body weight/day), potassium perfluorohexanesulfonate (using a dose level of 10 mg/kg body weight/day), and potassium perfluorooctanesulfonate (using a dose level of 3 mg/kg body weight/day).

[5] = Solubility in 10/1 buffered oxide etch solution
[6] = 28 days following completion of feeding
[7] = 28 days following completion of feeding, after normalization to the same feeding levels
[8] = immediately following completion of feeding

O=S(=O)([O-])C(F)(F)C(F)(F)C(F)(F)C(F)(F)F.[K+] [Example C4F9SO3K, Potassium perfluorobutanesulfonate]
surface tension (surface energy) ([1]; 10 ppm): 70 dynes/cm | surface tension (surface energy) ([1]; 100 ppm): 67.5 dynes/cm | surface tension (surface energy) ([1]; 1000 ppm): 53 dynes/cm | surface tension versus concentration profile, comparison in words [1]: less effective than perfluorooctanesulfonate in lowering the surface tension of water | Surface Tension @ 2000 ppm [2]: 27.32 dyne/cm | Observed Conductivity [3]: 3.5 uS/cm | factor lower than C6F13SO3− [4, 6]: > 1400 | factor lower than C6F13SO3− [4, 7]: 4400 | factor lower than C6F13SO3− [4, 8]: > 100 | Amount of Sulfonate, Day 1 [4]: 3.09 ± 1.58 ppm | Amount of Sulfonate, Day 14 [4]: 0.126 ± 0.084 ppm | Amount of Sulfonate, Day 28 [4]: 0.025 ± 0.015 ppm | Amount of Sulfonate, Day 1N [4]: 0.31 ppm | Amount of Sulfonate, Day 14N [4]: 0.0126 ppm | Amount of Sulfonate, Day 28N [4]: 0.0025 ppm | elimination from the body, in words ([4]; listed as C4F9SO3^−): unexpectedly fast and effective elimination | elimination from the body, in words ([4]; listed as perfluorobutanesulfonate): eliminates from the body more rapidly than perfluorohexanesulfonate and much more rapidly than perfluorooctanelsulfonate

N.O=S(=O)(NS(=O)(=O)C(F)(F)C(F)(F)C(F)(F)C(F)(F)F)C(F)(F)C(F)(F)C(F)(F)C(F)(F)F [DBI-NH4, NH4^+−N(SO2C4F9)2]
surface tension ([1]; 200 ppm): 48.6 dyne/cm | surface tension ([1]; 450 ppm): 44.1 dyne/cm | surface tension ([1]; 960 ppm): 40.1 dyne/cm | surface tension ([1]; 1300 ppm): 38.7 dyne/cm | surface tension ([1]; 1700 ppm): 35.9 dyne/cm | surface tension ([1]; 2600 ppm): 31.5 dyne/cm | surface tension versus concentration profile, comparison in words [1]: better surfactants than NH4^+−OSO2C8F17

O=S(=O)([O-])C1(F)C(F)(F)C(F)(F)C(F)(C(F)(F)C(F)(F)F)C(F)(F)C1(F)F.[K+] (stereo not drawn) [FC-98, Potassium perfluoroethylcyclohexanesulfonate]
Surface Tension @ 2000 ppm [2]: 26.94 dyne/cm | Observed Conductivity [3]: 3.2 uS/cm

O=S(=O)([O-])C(F)(F)C(F)(F)C(F)(F)C(F)(F)C(F)(F)C(F)(F)F.[K+] [C6F13SO3^−, potassium perfluorohexanesulfonate]
factor lower than C8F17SO3− [4, 6]: 6.5 | factor lower than C8F17SO3− [4, 7]: 21.5 | factor lower than C8F17SO3− [4, 8]: 1.3 | Amount of Sulfonate, Day 1 [4]: 327 ± 52 ppm | Amount of Sulfonate, Day 14 [4]: 61.9 ± 11.7 ppm | Amount of Sulfonate, Day 28 [4]: 36.3 ± 7.4 ppm | Amount of Sulfonate, Day 1N [4]: 98 ppm | Amount of Sulfonate, Day 14N [4]: 19 ppm | Amount of Sulfonate, Day 28N [4]: 11 ppm

O=S(=O)([O-])C(F)(F)C(F)(F)C(F)(F)C(F)(F)C(F)(F)C(F)(F)C(F)(F)C(F)(F)F.O=S(=O)([O-])C(F)(F)C(F)(F)C(F)(F)C(F)(F)C(F)(F)C(F)(F)C(F)(F)C(F)(F)F.[Ca+2] [Ca(C8F17SO3)2]
Surface Tension @ 2000 ppm [2]: 26.15 dyne/cm

O=S(=O)([N-]S(=O)(=O)C(F)(F)C(F)(F)C(F)(F)C(F)(F)F)C(F)(F)C(F)(F)C(F)(F)C(F)(F)F.[K+] [C4F9SO2NKSO2C4F9, potassium bis(perfluorobutanesulfonyl)imide]
surface tension (surface energy) ([1]; 10 ppm): 61.85 dynes/cm | surface tension (surface energy) ([1]; 100 ppm): 41.61 dynes/cm | surface tension (surface energy) ([1]; 1000 ppm): 34.02 dynes/cm | surface tension versus concentration profile, comparison in words [1]: surface tensions significantly less than PBSK and comparable to potassium perfluorooctanesulfonate at equal concentrations; also recorded: the same or better surface tension in water as C8F17SO3K | Surface Tension @ 2000 ppm [2]: 27.34 dyne/cm | Observed Conductivity [3]: 13.8 uS/cm

O=S(=O)([O-])C(F)(F)C(F)(F)C(F)(F)C(F)(F)C(F)(F)C(F)(F)C(F)(F)C(F)(F)F.O=S(=O)([O-])C(F)(F)C(F)(F)C(F)(F)C(F)(F)C(F)(F)C(F)(F)C(F)(F)C(F)(F)F.[Mg+2] [Mg(C8F17SO3)2]
Surface Tension @ 2000 ppm [2]: 27.36 dyne/cm

N.O=S(=O)(O)C(F)(F)C(F)(F)C(F)(F)C(F)(F)C(F)(F)C(F)(F)C(F)(F)C(F)(F)F [FC-93, ammonium perfluorooctanesulfonate]
solubility in buffered oxide etch ([5]; all concentrations (FIG. 4)): precipitated

[^−N(SO2C4F9)2]2 (+)H3NCH(CH3)CH2[OCH(CH3)CH2]a[OCH2CH2]8.5[OCH(CH3)CH2]CNH3(+) (a+c=2.5) [(DBI)2 JEFFAMINE ™ ED600]
surface tension (surface energy) ([1]; 10 ppm): 57.4 dynes/cm | surface tension (surface energy) ([1]; 100 ppm): 40.7 dynes/cm | surface tension (surface energy) ([1]; 1000 ppm): 32.7 dynes/cm | surface tension versus concentration profile, comparison in words [1]: significantly lower surface tensions than C4F9SO3K

O=S(=O)([N-]S(=O)(=O)C(F)(F)C(F)(F)C(F)(F)C(F)(F)F)C(F)(F)C(F)(F)C(F)(F)C(F)(F)F.O=S(=O)([N-]S(=O)(=O)C(F)(F)C(F)(F)C(F)(F)C(F)(F)F)C(F)(F)C(F)(F)C(F)(F)C(F)(F)F.[Mg+2] [Mg (DBI)2, Mg^+2[^−N(SO2C4F9)2]2]
surface tension ([1]; 200 ppm): 46.6 dyne/cm | surface tension ([1]; 450 ppm): 40.2 dyne/cm | surface tension ([1]; 960 ppm): 35.0 dyne/cm | surface tension ([1]; 1300 ppm): 32.0 dyne/cm | surface tension ([1]; 1700 ppm): 29.0 dyne/cm | surface tension ([1]; 2600 ppm): 26.3 dyne/cm | Surface Tension @ 2000 ppm [2]: 27.04 dyne/cm

O=S(=O)(NS(=O)(=O)C(F)(F)C(F)(F)C(F)(F)C(F)(F)F)C(F)(F)C(F)(F)C(F)(F)C(F)(F)F [bis(perfluorobutanesulfonyl)imide, HN(SO2C4F9)2]
surface tension versus concentration profile, comparison in words [1]: better surfactants than NH4^+−OSO2C8F17 | appearance of solution ([5]; 1000 ppm): slightly hazy to the eye

O=S(=O)([O-])C(F)(F)C(F)(F)C(F)(F)C(F)(F)C(F)(F)C(F)(F)C(F)(F)C(F)(F)F.[K+] [Example C8F17SO3K, Potassium perfluorooctanesulfonate]
surface tension (surface energy) ([1]; 10 ppm): 67.68 dynes/cm | surface tension (surface energy) ([1]; 100 ppm): 54.09 dynes/cm | surface tension (surface energy) ([1]; 1000 ppm): 33.17 dynes/cm | Surface Tension @ 2000 ppm [2]: 26.96 dyne/cm | Amount of Sulfonate, Day 1 [4]: 419 ± 86 ppm | Amount of Sulfonate, Day 14 [4]: 309 + 34 ppm | Amount of Sulfonate, Day 28 [4]: 237 ± 25 ppm | Amount of Sulfonate, Day 1N [4]: 419 ppm | Amount of Sulfonate, Day 14N [4]: 309 ppm | Amount of Sulfonate, Day 28N [4]: 237 ppm

O=S(=O)([N-]S(=O)(=O)C(F)(F)C(F)(F)C(F)(F)C(F)(F)F)C(F)(F)C(F)(F)C(F)(F)C(F)(F)F.[Li+] [DBI-Li, Lithium bis(perfluorobutanesulfonyl)imide]
surface tension ([1]; 200 ppm): 53.2 dyne/cm | surface tension ([1]; 450 ppm): 48.1 dyne/cm | surface tension ([1]; 960 ppm): 42.8 dyne/cm | surface tension ([1]; 1300 ppm): 41.5 dyne/cm | surface tension ([1]; 1700 ppm): 39.1 dyne/cm | surface tension ([1]; 2600 ppm): 36.0 dyne/cm | surface tension versus concentration profile, comparison in words [1]: significantly lower surface tensions than the shorter chain homologues

O.O.O.O.O.O.O=S(=O)([O-])C(F)(F)C(F)(F)C(F)(F)C(F)(F)F.O=S(=O)([O-])C(F)(F)C(F)(F)C(F)(F)C(F)(F)F.[Mg+2] [Mg(SO3C4F9)2 · 6H2O]
Surface Tension @ 2000 ppm [2]: 26.93 dyne/cm
